Like-named read-outs stand apart in the source and are kept apart here. Numbered stars: 1 amine (or outer) side, 2 acyl side, 3 side chain; on linkers, the order of the positions; unused ones are H or OH. Bridge positions count the residues as written; N and C are the ends. Square brackets hold non-standard residues; d marks the D form. Peptide text beside a SMILES is read from it. * marks the point of attachment. X3 = O=C(O)CN1CCN(CC(=O)O)CCN(CC(=O)NCCCOCCOCCOCCCN*)CCN(CC(=O)O)CC1; DOTA = O=C(O)CN1CCN(CC(=O)O)CCN(CC(=O)*)CCN(CC(=O)O)CC1; Phe(4-Cl) = N[C@@H](Cc1ccc(Cl)cc1)C(=O)O; Arg(Me) = CNC(=N)NCCC[C@H](N)C(=O)O; Lys(iPr) = CC(C)NCCCC[C@H](N)C(=O)O; X1 = O=C(CC1CCN([*:1])CC1)[*:2]; Suc = O=C(CCC(=O)[*:2])[*:1]; Tle = CC(C)(C)[C@H](N)C(=O)O; NHCH2CH2NMe2 = CN(C)CCN*; Aib = CC(C)(N)C(=O)O; Ahx = NCCCCCC(=O)O; βAla = NCCC(=O)O
Key:
[1] = molecular target: T1, Fc-fusion protein of human PSMA (hPSMA-Fc) (Homo sapiens, UniProt Q04609); experiment: Surface plasmon resonance assay (Biacore T200, single cycle kinetic); format: binding; settings: read-out: pKD CAT (converted)
T1 construct: purchased Acro Biosystems PSA-H5264
T1 sequence (Q04609 44-750 limits assumed): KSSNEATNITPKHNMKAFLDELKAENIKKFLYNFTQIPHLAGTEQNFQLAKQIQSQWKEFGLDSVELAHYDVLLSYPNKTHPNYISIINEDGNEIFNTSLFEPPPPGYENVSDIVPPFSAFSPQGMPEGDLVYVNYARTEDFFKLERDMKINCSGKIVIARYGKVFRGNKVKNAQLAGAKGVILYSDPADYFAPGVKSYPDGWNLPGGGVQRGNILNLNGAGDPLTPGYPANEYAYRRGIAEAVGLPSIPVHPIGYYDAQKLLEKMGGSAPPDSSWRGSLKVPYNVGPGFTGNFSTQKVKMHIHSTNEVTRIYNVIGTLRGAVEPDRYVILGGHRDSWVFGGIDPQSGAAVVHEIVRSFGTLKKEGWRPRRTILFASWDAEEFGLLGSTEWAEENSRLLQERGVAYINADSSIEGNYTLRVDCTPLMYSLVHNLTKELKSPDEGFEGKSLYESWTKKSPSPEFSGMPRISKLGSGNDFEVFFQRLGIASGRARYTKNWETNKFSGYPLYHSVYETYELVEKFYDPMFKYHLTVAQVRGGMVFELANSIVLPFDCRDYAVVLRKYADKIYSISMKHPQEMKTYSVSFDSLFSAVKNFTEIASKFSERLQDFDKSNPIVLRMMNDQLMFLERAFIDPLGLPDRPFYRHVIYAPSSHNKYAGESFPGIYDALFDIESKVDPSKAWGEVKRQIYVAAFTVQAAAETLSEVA
Method in brief: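 hPSMA-Fc was captured (~1000 RU) on an Fc-binding-peptide CM5 chip, and compounds were run in single cycle kinetic mode at 25° C in HBST with 0.1% DMSO. Double-blank-corrected sensorgrams were fitted to a 1:1 Langmuir model to give KD, reported as pKD.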

[2] = molecular target: T2, PSMA-expressing C4-2 cells (Homo sapiens, UniProt Q04609); experiment: FACS binding assay (competition with 50 nM PSM-0183); settings: read-out: pIC50 [C4-2] CAT (converted)
T2 construct: PSMA-expressing C4-2 cells (ATCC, Cat. No. CRL-3314) were cultured in RPMI-1640; host or cells: C4-2 cells
T2 sequence (Q04609 whole entry): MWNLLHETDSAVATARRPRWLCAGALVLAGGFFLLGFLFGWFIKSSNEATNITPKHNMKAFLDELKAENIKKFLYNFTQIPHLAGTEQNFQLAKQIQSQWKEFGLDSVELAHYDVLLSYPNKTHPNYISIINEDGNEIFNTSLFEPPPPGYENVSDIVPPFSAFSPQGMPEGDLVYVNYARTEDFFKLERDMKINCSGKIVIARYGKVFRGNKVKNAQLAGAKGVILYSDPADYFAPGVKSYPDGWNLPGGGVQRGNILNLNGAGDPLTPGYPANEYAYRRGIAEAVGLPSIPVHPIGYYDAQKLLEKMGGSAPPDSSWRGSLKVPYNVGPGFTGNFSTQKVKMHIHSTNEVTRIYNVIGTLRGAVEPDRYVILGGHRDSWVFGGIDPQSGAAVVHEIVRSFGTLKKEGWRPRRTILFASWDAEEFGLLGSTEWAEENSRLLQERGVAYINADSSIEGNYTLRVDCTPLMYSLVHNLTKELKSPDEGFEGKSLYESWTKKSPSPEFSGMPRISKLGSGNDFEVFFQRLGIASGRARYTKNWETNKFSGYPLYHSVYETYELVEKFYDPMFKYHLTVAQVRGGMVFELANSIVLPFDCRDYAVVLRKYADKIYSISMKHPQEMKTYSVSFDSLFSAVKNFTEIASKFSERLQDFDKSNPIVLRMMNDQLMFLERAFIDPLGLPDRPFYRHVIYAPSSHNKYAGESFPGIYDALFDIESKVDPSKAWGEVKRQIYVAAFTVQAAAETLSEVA
Method in brief: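 C4-2 cells were incubated 1 h at 4 °C with 50 nM AF488-labelled peptide PSM-0183 plus increasing test compound concentrations, then washed twice in ice-cold buffer. Median fluorescence in the AF488 channel was read by flow cytometry. IC50/pIC50 was derived by 4PL fitting of MFI versus concentration.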

[3] = pKD category for PSMA SPR activity assay, hPSMA-Fc, 25° C.
[4] = pIC50 category of FACS binding, C4-2 cells
[5] = PSMA SPR assay, hPSMA-Fc, 25° C., pKD category
[6] = FACS binding, PSMA-expressing C4-2 cells, pIC50 category

Compound | Kd [1, 3] [nM] | IC50 [2, 4] [nM] | Kd [1, 5] [nM] | IC50 [2, 6] [nM] | further results
C[C@@H](O)[C@H](NC(=O)[C@@H](NC(=O)[C@@H]1CSSC[C@H](NC(=O)[C@H](Cc2ccccc2)NC(=O)C(C)(C)NC(=O)CCNC(=O)CN2CCN(CC(=O)O)CCN(CC(=O)O)CCN(CC(=O)O)CC2)C(=O)N[C@@H](CCCCN)C(=O)N[C@@H](CCCNC(=N)N)C(=O)NC(C)(C)C(=O)N[C@@H](CC(N)=O)C(=O)N1)C(C)(C)C)C(N)=O [PSM-0437, DOTA-Bal-Aib-Phe-[Cys-Lys-Arg-Aib-Asn-Cys]-Tle-Thr-NH2] ({DOTA-βAla}-[Aib]FCKR[Aib]NC[Tle]T-NH2; disulfide 3-8) | 12.6 to 126 | < 200 | – | – | –
CC(=O)N[C@H](C(=O)NC(C)(C)C(=O)N[C@@H](Cc1c[nH]c2ccccc12)C(=O)N[C@H]1CSSC[C@@H](C(=O)N[C@H](C(=O)N[C@H](C(=O)N[C@@H](CC(=O)O)C(N)=O)[C@@H](C)O)C(C)(C)C)NC(=O)[C@H](CC(N)=O)NC(=O)C(C)(C)NC(=O)[C@H](CCCNC(=N)N)NC(=O)[C@H](CCCCN)NC1=O)[C@@H](C)O [PSM-0587, Ac-Thr-Aib-Trp-[Cys-Lys-Arg-Aib-Asn-Cys]-Tle-Thr-Asp-NH2] (Ac-T[Aib]WCKR[Aib]NC[Tle]TD-NH2; disulfide 4-9) | – | – | – | – | Kd ([1]; PSMA SPR assay, category): < 12.6 nM; IC50 ([2]; FACS binding, C4-2 cells, category): < 200 nM
C[C@@H](O)[C@H](NC(=O)CC1CCN(C(=O)CN2CCN(CC(=O)O)CCN(CC(=O)O)CCN(CC(=O)O)CC2)CC1)C(=O)NC(C)(C)C(=O)N[C@@H](Cc1ccc(Cl)cc1)C(=O)N[C@H]1CSSC[C@@H](C(=O)N[C@H](C(=O)NCCN(C)C)C(C)(C)C)NC(=O)[C@H](CC(N)=O)NC(=O)C(C)(C)NC(=O)[C@H](CCCNC(=N)N)NC(=O)[C@H](CCCCN)NC1=O [PSM-0306, DOTA-Cmp-Thr-Aib-Pcf-[Cys-Lys-Arg-Aib-Asn-Cys]-Tle-en (Me) 2] ({DOTA}-[X1]T[Aib][Phe(4-Cl)]CKR[Aib]NC[Tle]-NHCH2CH2NMe2; disulfide 5-10) | – | – | 12.6 to 126 | < 200 | –
CNC(=N)NCCC[C@@H]1NC(=O)[C@H](CCCCNC(C)C)NC(=O)[C@@H](NC(=O)[C@H](Cc2ccc(Cl)cc2)NC(=O)C(C)(C)NC(=O)[C@@H](NC(=O)CC2CCN(C(=O)CN3CCN(CC(=O)O)CCN(CC(=O)O)CCN(CC(=O)O)CC3)CC2)[C@@H](C)O)CSSC[C@@H](C(=O)N[C@H](C(=O)N[C@H](C(N)=O)[C@@H](C)O)C(C)(C)C)NC(=O)[C@H](CC(N)=O)NC(=O)C(C)(C)NC1=O [PSM-0244, DOTA-Cmp-Thr-Aib-Pcf-[Cys-Kip-Arg(Me)-Aib-Asn-Cys]-Tle-Thr-NH2] ({DOTA}-[X1]T[Aib][Phe(4-Cl)]C[Lys(iPr)][Arg(Me)][Aib]NC[Tle]T-NH2; disulfide 5-10) | – | – | – | – | Kd ([1]; SPR, hPSMA-Fc, single cycle kinetic, 25° C., category): < 12.6 nM; IC50 ([2]; FACS binding, C4-2 cells, competition with 50 nM PSM-0183, category): < 200 nM

Now from value to compound, other results behind:

Kd [1, 3] [nM] | IC50 [2, 4] [nM] | Kd [1, 5] [nM] | IC50 [2, 6] [nM] | Compound | further results
– | – | 12.6 to 126 | < 200 | C[C@@H]1NC(=O)[C@H](CCCNC(=N)N)NC(=O)[C@H](CCCCN)NC(=O)[C@@H](NC(=O)[C@H](Cc2ccccc2)NC(=O)[C@H](C)NC(=O)[C@@H](NC(=O)CCC(=O)NCCCOCCOCCOCCCNC(=O)CN2CCN(CC(=O)O)CCN(CC(=O)O)CCN(CC(=O)O)CC2)[C@@H](C)O)CSSC[C@@H](C(=O)N[C@H](C(=O)N[C@H](C(=O)N[C@@H](CC(=O)O)C(N)=O)[C@@H](C)O)C(C)(C)C)NC(=O)[C@H](CC(N)=O)NC1=O [PSM-0342, DOTA-Ttds-Thr-Ala-Phe-[Cys-Lys-Arg-Ala-Asn-Cys]-Tle-Thr-Asp-NH2] ({X3-Suc}-TAFCKRANC[Tle]TD-NH2; disulfide 4-9) | –
< 12.6 | < 200 | – | – | C[C@@H](O)[C@H](NC(=O)[C@@H](NC(=O)[C@@H]1CSSC[C@H](NC(=O)[C@H](Cc2ccccc2)NC(=O)C(C)(C)NC(=O)[C@@H](NC(=O)CCCCCNC(=O)CN2CCN(CC(=O)O)CCN(CC(=O)O)CCN(CC(=O)O)CC2)[C@@H](C)O)C(=O)N[C@@H](CCCCN)C(=O)N[C@@H](CCCNC(=N)N)C(=O)NC(C)(C)C(=O)N[C@@H](CC(N)=O)C(=O)N1)C(C)(C)C)C(N)=O [PSM-0368, DOTA-Ahx-Thr-Aib-Phe-[Cys-Lys-Arg-Aib-Ass-Cys]-Tle-Thr-NH2] ({DOTA-Ahx}-T[Aib]FCKR[Aib]NC[Tle]T-NH2; disulfide 4-9) | –

— US20260083865A1, “PROSTATE SPECIFIC MEMBRANE ANTIGEN (PSMA) LIGANDS AND USE THEREOF” (priority 2022, published 2026)
